Numbers after ± are expanded uncertainties.
Settings: Liquid, Vibrating tube method

In the case of `Cc1cccc(O)c1` [3-methylphenol], the mass density (313.22 K, 1001 kPa) is reported as 1019.1 ± 0.3 kg/m3, the mass density (313.22 K, 2012 kPa) is reported as 1019.8 ± 0.3 kg/m3 and the mass density (313.22 K, 3024 kPa) is reported as 1020.3 ± 0.3 kg/m3. It also gave a mass density (313.22 K, 4007 kPa) of 1020.9 ± 0.3 kg/m3, a mass density (313.22 K, 4992 kPa) of 1021.4 ± 0.3 kg/m3 and a mass density (313.22 K, 6027 kPa) of 1022 ± 0.3 kg/m3. For the same compound, the mass density (313.22 K, 7013 kPa) was 1022.6 ± 0.3 kg/m3, the mass density (313.22 K, 8000 kPa) was 1023.1 ± 0.3 kg/m3 and the mass density (313.22 K, 9008 kPa) was 1023.7 ± 0.3 kg/m3. The mass density (313.22 K, 10014 kPa) was 1024.3 ± 0.3 kg/m3, the mass density (313.22 K, 11015 kPa) was 1024.8 ± 0.3 kg/m3 and the mass density (313.22 K, 12040 kPa) was 1025.4 ± 0.3 kg/m3. It also gave a mass density (313.22 K, 13022 kPa) of 1026 ± 0.3 kg/m3, a mass density (313.22 K, 14023 kPa) of 1026.4 ± 0.3 kg/m3 and a mass density (313.22 K, 15002 kPa) of 1026.9 ± 0.3 kg/m3. The mass density (313.22 K, 16009 kPa) was 1027.5 ± 0.3 kg/m3, the mass density (313.22 K, 17020 kPa) was 1028 ± 0.3 kg/m3 and the mass density (313.22 K, 18021 kPa) was 1028.5 ± 0.3 kg/m3. The mass density (313.22 K, 19016 kPa) was 1029 ± 0.3 kg/m3, the mass density (313.22 K, 20026 kPa) was 1029.6 ± 0.3 kg/m3 and the mass density (313.22 K, 21024 kPa) was 1030.1 ± 0.3 kg/m3. For the same compound, the mass density (313.22 K, 22026 kPa) was 1030.7 ± 0.3 kg/m3, the mass density (313.22 K, 23030 kPa) was 1031.1 ± 0.3 kg/m3 and the mass density (313.22 K, 24017 kPa) was 1031.6 ± 0.3 kg/m3. It also gave a mass density (313.22 K, 25019 kPa) of 1032.2 ± 0.3 kg/m3, a mass density (322.9 K, 1014 kPa) of 1011.2 ± 0.3 kg/m3 and a mass density (322.9 K, 2041 kPa) of 1011.8 ± 0.3 kg/m3. The mass density (322.9 K, 3002 kPa) was 1012.4 ± 0.3 kg/m3, the mass density (322.9 K, 4014 kPa) was 1013 ± 0.3 kg/m3 and the mass density (322.9 K, 5012 kPa) was 1013.6 ± 0.3 kg/m3. The mass density (322.9 K, 6022 kPa) was 1014.2 ± 0.3 kg/m3, the mass density (322.9 K, 7020 kPa) was 1014.7 ± 0.3 kg/m3 and the mass density (322.9 K, 8018 kPa) was 1015.3 ± 0.3 kg/m3. For the same compound, the mass density (322.9 K, 9020 kPa) was 1015.9 ± 0.3 kg/m3, the mass density (322.9 K, 10005 kPa) was 1016.4 ± 0.3 kg/m3 and the mass density (322.9 K, 11018 kPa) was 1017 ± 0.3 kg/m3. For the same compound, the mass density (322.9 K, 12019 kPa) was 1017.6 ± 0.3 kg/m3, the mass density (322.9 K, 13017 kPa) was 1018.2 ± 0.3 kg/m3 and the mass density (322.9 K, 14010 kPa) was 1018.7 ± 0.3 kg/m3. It also gave a mass density (322.9 K, 15022 kPa) of 1019.3 ± 0.3 kg/m3, a mass density (322.9 K, 16000 kPa) of 1019.8 ± 0.3 kg/m3 and a mass density (322.9 K, 17011 kPa) of 1020.4 ± 0.3 kg/m3. The mass density (322.9 K, 18018 kPa) was 1020.9 ± 0.3 kg/m3, the mass density (322.9 K, 19018 kPa) was 1021.4 ± 0.3 kg/m3 and the mass density (322.9 K, 20009 kPa) was 1022 ± 0.3 kg/m3. For the same compound, the mass density (322.9 K, 21019 kPa) was 1022.6 ± 0.3 kg/m3, the mass density (322.9 K, 22019 kPa) was 1023.1 ± 0.3 kg/m3 and the mass density (322.9 K, 23006 kPa) was 1023.6 ± 0.3 kg/m3. It also gave a mass density (322.9 K, 24012 kPa) of 1024.1 ± 0.3 kg/m3, a mass density (322.9 K, 25019 kPa) of 1024.7 ± 0.3 kg/m3 and a mass density (332.61 K, 1018 kPa) of 1003.3 ± 0.3 kg/m3. The mass density (332.61 K, 2014 kPa) was 1004 ± 0.3 kg/m3, the mass density (332.61 K, 3003 kPa) was 1004.5 ± 0.3 kg/m3 and the mass density (332.61 K, 4030 kPa) was 1005.2 ± 0.3 kg/m3. For the same compound, the mass density (332.61 K, 5000 kPa) was 1005.8 ± 0.3 kg/m3, the mass density (332.61 K, 6022 kPa) was 1006.4 ± 0.3 kg/m3 and the mass density (332.61 K, 7020 kPa) was 1006.9 ± 0.3 kg/m3. It also gave a mass density (332.61 K, 8020 kPa) of 1007.5 ± 0.3 kg/m3, a mass density (332.61 K, 9003 kPa) of 1008.1 ± 0.3 kg/m3 and a mass density (332.61 K, 10014 kPa) of 1008.7 ± 0.3 kg/m3. For the same compound, the mass density (332.61 K, 11012 kPa) was 1009.3 ± 0.3 kg/m3, the mass density (332.61 K, 12000 kPa) was 1009.9 ± 0.3 kg/m3 and the mass density (332.61 K, 13000 kPa) was 1010.4 ± 0.3 kg/m3. For the same compound, the mass density (332.61 K, 14028 kPa) was 1011 ± 0.3 kg/m3, the mass density (332.61 K, 15028 kPa) was 1011.6 ± 0.3 kg/m3 and the mass density (332.61 K, 16023 kPa) was 1012.2 ± 0.3 kg/m3. It also gave a mass density (332.61 K, 17000 kPa) of 1012.7 ± 0.3 kg/m3, a mass density (332.61 K, 18008 kPa) of 1013.3 ± 0.3 kg/m3 and a mass density (332.61 K, 19000 kPa) of 1013.9 ± 0.3 kg/m3. It also gave a mass density (332.61 K, 20001 kPa) of 1014.4 ± 0.3 kg/m3, a mass density (332.61 K, 21013 kPa) of 1014.9 ± 0.3 kg/m3 and a mass density (332.61 K, 22010 kPa) of 1015.5 ± 0.3 kg/m3. It also gave a mass density (332.61 K, 23007 kPa) of 1016 ± 0.3 kg/m3, a mass density (332.61 K, 24000 kPa) of 1016.6 ± 0.3 kg/m3 and a mass density (332.61 K, 25008 kPa) of 1017.1 ± 0.3 kg/m3. The mass density (342.27 K, 2018 kPa) was 995.8 ± 0.3 kg/m3, the mass density (342.27 K, 2999 kPa) was 996.4 ± 0.3 kg/m3 and the mass density (342.27 K, 3998 kPa) was 997 ± 0.3 kg/m3. It also gave a mass density (342.27 K, 4976 kPa) of 997.6 ± 0.3 kg/m3, a mass density (342.27 K, 5984 kPa) of 998.3 ± 0.3 kg/m3 and a mass density (342.27 K, 7059 kPa) of 998.9 ± 0.3 kg/m3. It also gave a mass density (342.27 K, 8070 kPa) of 999.7 ± 0.3 kg/m3, a mass density (342.27 K, 8967 kPa) of 1000.2 ± 0.3 kg/m3 and a mass density (342.27 K, 9994 kPa) of 1000.8 ± 0.3 kg/m3. For the same compound, the mass density (342.27 K, 10921 kPa) was 1001.4 ± 0.3 kg/m3, the mass density (342.27 K, 11964 kPa) was 1002.1 ± 0.3 kg/m3 and the mass density (342.27 K, 12971 kPa) was 1002.6 ± 0.3 kg/m3. For the same compound, the mass density (342.27 K, 13954 kPa) was 1003.2 ± 0.3 kg/m3, the mass density (342.27 K, 14960 kPa) was 1004 ± 0.3 kg/m3 and the mass density (342.27 K, 15941 kPa) was 1004.3 ± 0.3 kg/m3. For the same compound, the mass density (342.27 K, 16963 kPa) was 1005.1 ± 0.3 kg/m3, the mass density (342.27 K, 17992 kPa) was 1005.8 ± 0.3 kg/m3 and the mass density (342.27 K, 18963 kPa) was 1006.2 ± 0.3 kg/m3. The mass density (342.27 K, 19996 kPa) was 1006.7 ± 0.3 kg/m3, the mass density (342.27 K, 21003 kPa) was 1007.5 ± 0.3 kg/m3 and the mass density (342.27 K, 21974 kPa) was 1008 ± 0.3 kg/m3. The mass density (342.27 K, 22968 kPa) was 1008.7 ± 0.3 kg/m3, the mass density (342.27 K, 24051 kPa) was 1009.2 ± 0.3 kg/m3 and the mass density (342.27 K, 24971 kPa) was 1009.7 ± 0.3 kg/m3. It also gave a mass density (352.06 K, 1951 kPa) of 988.5 ± 0.3 kg/m3, a mass density (352.06 K, 2979 kPa) of 989.1 ± 0.3 kg/m3 and a mass density (352.06 K, 4034 kPa) of 989.8 ± 0.3 kg/m3. It also gave a mass density (352.06 K, 4966 kPa) of 990.3 ± 0.3 kg/m3, a mass density (352.06 K, 5929 kPa) of 990.9 ± 0.3 kg/m3 and a mass density (352.06 K, 7014 kPa) of 991.6 ± 0.3 kg/m3. For the same compound, the mass density (352.06 K, 8011 kPa) was 992.2 ± 0.3 kg/m3, the mass density (352.06 K, 8921 kPa) was 992.8 ± 0.3 kg/m3 and the mass density (352.06 K, 9982 kPa) was 993.4 ± 0.3 kg/m3. For the same compound, the mass density (352.06 K, 10938 kPa) was 994 ± 0.3 kg/m3, the mass density (352.06 K, 11975 kPa) was 994.6 ± 0.3 kg/m3 and the mass density (352.06 K, 12999 kPa) was 995.3 ± 0.3 kg/m3. The mass density (352.06 K, 13907 kPa) was 995.8 ± 0.3 kg/m3, the mass density (352.06 K, 14981 kPa) was 996.5 ± 0.3 kg/m3 and the mass density (352.06 K, 15966 kPa) was 997.1 ± 0.3 kg/m3. The mass density (352.06 K, 16996 kPa) was 997.7 ± 0.3 kg/m3, the mass density (352.06 K, 17984 kPa) was 998.3 ± 0.3 kg/m3 and the mass density (352.06 K, 18991 kPa) was 998.9 ± 0.3 kg/m3. The mass density (352.06 K, 20005 kPa) was 999.5 ± 0.3 kg/m3, the mass density (352.06 K, 21038 kPa) was 1000.1 ± 0.3 kg/m3 and the mass density (352.06 K, 22019 kPa) was 1000.6 ± 0.3 kg/m3. It also gave a mass density (352.06 K, 23001 kPa) of 1001.2 ± 0.3 kg/m3, a mass density (352.06 K, 24029 kPa) of 1001.8 ± 0.3 kg/m3 and a mass density (352.06 K, 24969 kPa) of 1002.3 ± 0.3 kg/m3. For the same compound, the mass density (361.9 K, 1990 kPa) was 980.5 ± 0.3 kg/m3, the mass density (361.9 K, 3001 kPa) was 981.2 ± 0.3 kg/m3 and the mass density (361.9 K, 4024 kPa) was 981.8 ± 0.3 kg/m3. It also gave a mass density (361.9 K, 5019 kPa) of 982.5 ± 0.3 kg/m3, a mass density (361.9 K, 6014 kPa) of 983.1 ± 0.3 kg/m3 and a mass density (361.9 K, 7025 kPa) of 983.7 ± 0.3 kg/m3. For the same compound, the mass density (361.9 K, 8019 kPa) was 984.4 ± 0.3 kg/m3, the mass density (361.9 K, 9010 kPa) was 985 ± 0.3 kg/m3 and the mass density (361.9 K, 9978 kPa) was 985.6 ± 0.3 kg/m3. For the same compound, the mass density (361.9 K, 11019 kPa) was 986.3 ± 0.3 kg/m3, the mass density (361.9 K, 12038 kPa) was 986.9 ± 0.3 kg/m3 and the mass density (361.9 K, 13020 kPa) was 987.6 ± 0.3 kg/m3. It also gave a mass density (361.9 K, 14021 kPa) of 988.2 ± 0.3 kg/m3, a mass density (361.9 K, 15006 kPa) of 988.8 ± 0.3 kg/m3 and a mass density (361.9 K, 15970 kPa) of 989.4 ± 0.3 kg/m3. For the same compound, the mass density (361.9 K, 16988 kPa) was 990.1 ± 0.3 kg/m3, the mass density (361.9 K, 17991 kPa) was 990.7 ± 0.3 kg/m3 and the mass density (361.9 K, 19016 kPa) was 991.4 ± 0.3 kg/m3. For the same compound, the mass density (361.9 K, 20042 kPa) was 992 ± 0.3 kg/m3, the mass density (361.9 K, 20983 kPa) was 992.6 ± 0.3 kg/m3 and the mass density (361.9 K, 22034 kPa) was 993.3 ± 0.3 kg/m3. The mass density (361.9 K, 23021 kPa) was 993.9 ± 0.3 kg/m3, the mass density (361.9 K, 24011 kPa) was 994.6 ± 0.3 kg/m3 and the mass density (361.9 K, 24912 kPa) was 995.1 ± 0.3 kg/m3.

— the NIST ThermoML archive (doi:10.1021/je400055v)
